# Target: T1, PepS (Shewanella sp. E525-6, UniProt A0A140CQI1)
# T1 construct: mature N-terminus L17-T-A-C-N21 (16-residue signal peptide removed)
# T1 sequence (A0A140CQI1 17-694): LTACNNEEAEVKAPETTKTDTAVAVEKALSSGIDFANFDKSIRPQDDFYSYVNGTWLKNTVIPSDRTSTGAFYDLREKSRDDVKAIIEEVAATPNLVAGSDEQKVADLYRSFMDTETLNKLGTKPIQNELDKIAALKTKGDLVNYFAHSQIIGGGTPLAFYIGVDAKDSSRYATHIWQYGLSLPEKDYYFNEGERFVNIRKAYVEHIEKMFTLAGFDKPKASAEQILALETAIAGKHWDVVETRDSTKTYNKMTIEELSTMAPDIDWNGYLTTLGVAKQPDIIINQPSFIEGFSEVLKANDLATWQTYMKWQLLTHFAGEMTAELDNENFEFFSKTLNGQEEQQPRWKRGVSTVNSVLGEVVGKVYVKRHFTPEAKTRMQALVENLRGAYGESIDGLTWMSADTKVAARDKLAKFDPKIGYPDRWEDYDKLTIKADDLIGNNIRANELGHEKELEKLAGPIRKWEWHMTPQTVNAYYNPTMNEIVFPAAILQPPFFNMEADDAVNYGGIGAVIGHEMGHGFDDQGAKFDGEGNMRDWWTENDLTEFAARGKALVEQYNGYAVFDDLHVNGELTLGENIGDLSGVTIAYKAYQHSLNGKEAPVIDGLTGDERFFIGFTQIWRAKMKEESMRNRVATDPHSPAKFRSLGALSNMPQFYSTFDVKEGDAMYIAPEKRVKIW
# Test: residual peptidase activity, HPLC of product FSP
# Assay type: biochemical
# From the text: residual peptidase activity, HPLC of product FSP on PepS
smiles,measurement,value
CC(C)C[C@H](NP(=O)(O)O[C@@H]1O[C@@H](C)[C@H](O)[C@@H](O)[C@H]1O)C(=O)N[C@@H](Cc1c[nH]c2ccccc12)C(=O)O [Phosphoramidon],remaining activity at 10 µM,4.3 ± 0.4%
